{"source": "ChEMBL document CHEMBL2434930", "about": "“Design, synthesis and biological evaluation of novel anti-cytokine 1,2,4-triazine derivatives” (Bioorg Med Chem, 2013)", "key": {"PBMC [1]": {"system": "PBMC", "assay": "Cytotoxicity against human PBMC assessed as cell viability at 10 to 20 uM by MTT assay", "type": "cell-based"}, "MCF7": {"system": "MCF7", "assay": "Cytotoxicity against human MCF7 cells assessed as cell viability at 10 to 20 uM by MTT assay", "type": "cell-based", "conditions": "mcf7, 20 µM"}, "PBMC [2]": {"system": "PBMC", "assay": "Antiinflammatory activity in human PBMC assessed as inhibition of LPS-induced TNFalpha production at 10 uM treated 30 mins before LPS challenge measured after 6 hrs by ELISA", "type": "functional"}, "PBMC [3]": {"system": "PBMC", "assay": "Antiinflammatory activity in human PBMC assessed as inhibition of LPS-induced IL1-beta production at 10 uM treated 30 mins before LPS challenge measured after 6 hrs by ELISA", "type": "functional"}, "[4]": {"biological_target": "T1, MAP kinase p38 (Homo sapiens) (UniProt O15264+Q15759+Q16539+P53778)", "assay": "Inhibition of etoposide-induced p38 MAPK activation in human MCF7 cells at 20 uM treated 30 mins before etoposide challenge measured after 3 hrs by Western blot analysis", "type": "cell-based"}, "Rattus norvegicus [5]": {"system": "Rattus norvegicus", "assay": "Antiinflammatory activity in rat assessed as inhibition of carrageenan-induced paw edema at 10 mg/kg, ip administered 1 hr before carrageenan challenge measured at 3 hrs relative to control", "type": "functional", "conditions": "route intraperitoneal"}, "Rattus norvegicus [6]": {"system": "Rattus norvegicus", "assay": "Antiinflammatory activity in rat assessed as inhibition of carrageenan-induced paw edema at 10 mg/kg, ip administered 1 hr before carrageenan challenge measured at 1 hr relative to control", "type": "functional", "conditions": "route intraperitoneal"}, "[7]": {"biological_target": "T1, MAP kinase p38 (Homo sapiens)", "assay": "Inhibition of etoposide-induced p38 MAPK activation in human MCF7 cells assessed as phosphorylated ATF-2 level at 20 uM treated 30 mins before etoposide challenge measured after 3 hrs by Western blot analysis", "type": "cell-based"}, "Rattus norvegicus [8]": {"system": "Rattus norvegicus", "assay": "Antiinflammatory activity in rat assessed as inhibition of carrageenan-induced paw edema at 10 mg/kg, ip administered 1 hr before carrageenan challenge measured at 2 hrs relative to control", "type": "functional", "conditions": "route intraperitoneal"}, "Rattus norvegicus [9]": {"system": "Rattus norvegicus", "assay": "Antiinflammatory activity in rat assessed as inhibition of carrageenan-induced paw edema at 10 mg/kg, ip administered 1 hr before carrageenan challenge measured at 4 hrs relative to control", "type": "functional", "conditions": "route intraperitoneal"}, "Rattus norvegicus [10]": {"system": "Rattus norvegicus", "assay": "Antiinflammatory activity in rat assessed as inhibition of carrageenan-induced paw edema at 50 mg/kg, ip administered 1 hr before carrageenan challenge measured at 2 hrs relative to control", "type": "functional", "conditions": "route intraperitoneal"}, "Rattus norvegicus [11]": {"system": "Rattus norvegicus", "assay": "Antiinflammatory activity in rat assessed as inhibition of carrageenan-induced paw edema at 50 mg/kg, ip administered 1 hr before carrageenan challenge measured at 1 hr relative to control", "type": "functional", "conditions": "route intraperitoneal"}, "Rattus norvegicus [12]": {"system": "Rattus norvegicus", "assay": "Antiinflammatory activity in rat assessed as inhibition of carrageenan-induced paw edema at 50 mg/kg, ip administered 1 hr before carrageenan challenge measured at 4 hrs relative to control", "type": "functional", "conditions": "route intraperitoneal"}, "Rattus norvegicus [13]": {"system": "Rattus norvegicus", "assay": "Antiinflammatory activity in rat assessed as inhibition of carrageenan-induced paw edema at 50 mg/kg, ip administered 1 hr before carrageenan challenge measured at 3 hrs relative to control", "type": "functional", "conditions": "route intraperitoneal"}}, "note": "Activity calls are given as the source filed them. The calls are words filed in the database; no cut-off is given here."}
{"smiles": "COc1ccc(-c2nnc(N/N=C/c3ccc(OC)c(OC)c3)nc2-c2ccc(OC)cc2)cc1", "values": [{"measurement": "Activity", "setting": "PBMC [1]", "result": "Non-toxic"}, {"measurement": "Activity", "setting": "MCF7", "result": "Non-toxic"}, {"measurement": "inhibition at 10 µM", "setting": "PBMC [2]", "result": 45, "unit": "%"}, {"measurement": "inhibition at 10 µM", "setting": "PBMC [3]", "result": 39.9, "unit": "%"}]}
{"smiles": "COc1ccc(-c2nnc(N/N=C/c3cccc(O)c3O)nc2-c2ccc(OC)cc2)cc1", "values": [{"measurement": "Activity", "setting": "PBMC [1]", "result": "Non-toxic"}, {"measurement": "Activity", "setting": "MCF7", "result": "Non-toxic"}, {"measurement": "inhibition at 10 µM", "setting": "PBMC [2]", "result": 46.7, "unit": "%"}, {"measurement": "inhibition at 10 µM", "setting": "PBMC [3]", "result": 78.2, "unit": "%"}]}
{"smiles": "COc1ccc(-c2nnc(N/N=C/c3c(Cl)cccc3[N+](=O)[O-])nc2-c2ccc(OC)cc2)cc1", "values": [{"measurement": "Activity", "setting": "PBMC [1]", "result": "Non-toxic"}, {"measurement": "Activity", "setting": "MCF7", "result": "Non-toxic"}, {"measurement": "inhibition at 10 µM", "setting": "PBMC [2]", "result": 47.9, "unit": "%"}, {"measurement": "inhibition at 10 µM", "setting": "PBMC [3]", "result": 2.81, "unit": "%"}]}
{"smiles": "COc1ccc(-c2nnc(N/N=C/c3cc4ccccc4[nH]3)nc2-c2ccc(OC)cc2)cc1", "values": [{"measurement": "Activity", "setting": "PBMC [1]", "result": "Non-toxic"}, {"measurement": "Activity", "setting": "MCF7", "result": "Non-toxic"}, {"measurement": "inhibition at 10 µM", "setting": "PBMC [2]", "result": 53.3, "unit": "%"}, {"measurement": "inhibition at 10 µM", "setting": "PBMC [3]", "result": 82.3, "unit": "%"}]}
{"smiles": "COc1ccc(-c2nnc(N/N=C/c3ccc4c(c3)OCO4)nc2-c2ccc(OC)cc2)cc1", "values": [{"measurement": "Activity", "setting": "PBMC [1]", "result": "Non-toxic"}, {"measurement": "Activity", "setting": "MCF7", "result": "Non-toxic"}, {"measurement": "inhibition at 10 µM", "setting": "PBMC [2]", "result": 52.2, "unit": "%"}, {"measurement": "inhibition at 10 µM", "setting": "PBMC [3]", "result": 86.9, "unit": "%"}]}
{"smiles": "COc1ccc(-c2nnc(N/N=C/c3ccco3)nc2-c2ccc(OC)cc2)cc1", "values": [{"measurement": "Activity", "setting": "PBMC [1]", "result": "Non-toxic"}, {"measurement": "Activity", "setting": "MCF7", "result": "Non-toxic"}, {"measurement": "inhibition at 10 µM", "setting": "PBMC [2]", "result": 71.1, "unit": "%"}, {"measurement": "inhibition at 10 µM", "setting": "PBMC [3]", "result": 84, "unit": "%"}]}
{"smiles": "COc1ccc(-c2nnc(N/N=C/c3cccc(OC)c3OC)nc2-c2ccc(OC)cc2)cc1", "values": [{"measurement": "Activity", "setting": "PBMC [1]", "result": "Non-toxic"}, {"measurement": "inhibition", "setting": "[4]", "result": "inactive"}, {"measurement": "inhibition in vivo at 10 mg/kg", "setting": "Rattus norvegicus [5]", "result": 64.2, "unit": "%"}, {"measurement": "Activity", "setting": "MCF7", "result": "Non-toxic"}, {"measurement": "inhibition in vivo at 10 mg/kg", "setting": "Rattus norvegicus [6]", "result": 38.8, "unit": "%"}, {"measurement": "inhibition at 10 µM", "setting": "PBMC [2]", "result": 71.8, "unit": "%"}, {"measurement": "inhibition", "setting": "[7]", "result": "Active"}, {"measurement": "inhibition at 10 µM", "setting": "PBMC [3]", "result": 89.8, "unit": "%"}, {"measurement": "inhibition in vivo at 10 mg/kg", "setting": "Rattus norvegicus [8]", "result": 45.3, "unit": "%"}, {"measurement": "inhibition in vivo at 10 mg/kg", "setting": "Rattus norvegicus [9]", "result": 75.6, "unit": "%"}]}
{"smiles": "COc1ccc(-c2nnc(N/N=C/c3ccc(O)c(OC)c3)nc2-c2ccc(OC)cc2)cc1", "values": [{"measurement": "Activity", "setting": "PBMC [1]", "result": "Non-toxic"}, {"measurement": "Activity", "setting": "MCF7", "result": "Non-toxic"}, {"measurement": "inhibition at 10 µM", "setting": "PBMC [2]", "result": 46.1, "unit": "%"}, {"measurement": "inhibition at 10 µM", "setting": "PBMC [3]", "result": 84.3, "unit": "%"}]}
{"smiles": "COc1ccc(/C=N/Nc2nnc(-c3ccc(OC)cc3)c(-c3ccc(OC)cc3)n2)cc1", "values": [{"measurement": "Activity", "setting": "PBMC [1]", "result": "Non-toxic"}, {"measurement": "Activity", "setting": "MCF7", "result": "Non-toxic"}, {"measurement": "inhibition at 10 µM", "setting": "PBMC [2]", "result": 48.5, "unit": "%"}, {"measurement": "inhibition at 10 µM", "setting": "PBMC [3]", "result": 35.9, "unit": "%"}]}
{"smiles": "COc1ccc(-c2nnc(N/N=C/c3ccncc3)nc2-c2ccc(OC)cc2)cc1", "values": [{"measurement": "Activity", "setting": "PBMC [1]", "result": "Non-toxic"}, {"measurement": "Activity", "setting": "MCF7", "result": "Non-toxic"}, {"measurement": "inhibition at 10 µM", "setting": "PBMC [2]", "result": 41.8, "unit": "%"}, {"measurement": "inhibition at 10 µM", "setting": "PBMC [3]", "result": 60.8, "unit": "%"}]}
{"smiles": "COc1ccc(-c2nnc(N/N=C/c3ccccc3)nc2-c2ccc(OC)cc2)cc1", "values": [{"measurement": "Activity", "setting": "PBMC [1]", "result": "Non-toxic"}, {"measurement": "Activity", "setting": "MCF7", "result": "Non-toxic"}, {"measurement": "inhibition at 10 µM", "setting": "PBMC [2]", "result": 53.1, "unit": "%"}, {"measurement": "inhibition at 10 µM", "setting": "PBMC [3]", "result": 71.5, "unit": "%"}]}
{"smiles": "COc1ccc(-c2nnc(N/N=C/c3ccc(F)cc3)nc2-c2ccc(OC)cc2)cc1", "values": [{"measurement": "Activity", "setting": "PBMC [1]", "result": "Non-toxic"}, {"measurement": "Activity", "setting": "MCF7", "result": "Non-toxic"}, {"measurement": "inhibition at 10 µM", "setting": "PBMC [2]", "result": 34.5, "unit": "%"}, {"measurement": "inhibition at 10 µM", "setting": "PBMC [3]", "result": 27.9, "unit": "%"}]}
{"smiles": "COc1ccc(-c2nnc(N/N=C/c3ccc([N+](=O)[O-])cc3)nc2-c2ccc(OC)cc2)cc1", "values": [{"measurement": "Activity", "setting": "PBMC [1]", "result": "Non-toxic"}, {"measurement": "Activity", "setting": "MCF7", "result": "Non-toxic"}, {"measurement": "inhibition at 10 µM", "setting": "PBMC [2]", "result": 37.6, "unit": "%"}, {"measurement": "inhibition at 10 µM", "setting": "PBMC [3]", "result": 15.5, "unit": "%"}]}
{"smiles": "Oc1ccc(-c2nc(-c3ccc(F)cc3)c(-c3ccncc3)[nH]2)cc1", "note": "[SB-202190]", "values": [{"measurement": "inhibition at 10 µM", "setting": "PBMC [2]", "result": 87.2, "unit": "%"}, {"measurement": "inhibition at 10 µM", "setting": "PBMC [3]", "result": 93.4, "unit": "%"}]}
{"smiles": "COc1ccc(-c2nnc(N/N=C/c3ccc(Cl)cc3Cl)nc2-c2ccc(OC)cc2)cc1", "values": [{"measurement": "Activity", "setting": "PBMC [1]", "result": "Non-toxic"}, {"measurement": "Activity", "setting": "MCF7", "result": "Non-toxic"}, {"measurement": "inhibition at 10 µM", "setting": "PBMC [2]", "result": 70, "unit": "%"}, {"measurement": "inhibition at 10 µM", "setting": "PBMC [3]", "result": 86.9, "unit": "%"}]}
{"smiles": "COc1ccc(-c2nnc(N/N=C/c3ccc(O)cc3O)nc2-c2ccc(OC)cc2)cc1", "values": [{"measurement": "Activity", "setting": "PBMC [1]", "result": "Non-toxic"}, {"measurement": "Activity", "setting": "MCF7", "result": "Non-toxic"}, {"measurement": "inhibition at 10 µM", "setting": "PBMC [2]", "result": 32.7, "unit": "%"}, {"measurement": "inhibition at 10 µM", "setting": "PBMC [3]", "result": 51.8, "unit": "%"}]}
{"smiles": "COc1ccc(-c2nnc(N/N=C/c3cccs3)nc2-c2ccc(OC)cc2)cc1", "values": [{"measurement": "Activity", "setting": "PBMC [1]", "result": "Non-toxic"}, {"measurement": "Activity", "setting": "MCF7", "result": "Non-toxic"}, {"measurement": "inhibition at 10 µM", "setting": "PBMC [2]", "result": 57.5, "unit": "%"}, {"measurement": "inhibition at 10 µM", "setting": "PBMC [3]", "result": 81.8, "unit": "%"}]}
{"smiles": "COc1ccc2c(c1)c(CC(=O)O)c(C)n2C(=O)c1ccc(Cl)cc1", "note": "[INDOMETHACIN]", "values": [{"measurement": "inhibition in vivo at 50 mg/kg", "setting": "Rattus norvegicus [10]", "result": 28.4, "unit": "%"}, {"measurement": "inhibition in vivo at 50 mg/kg", "setting": "Rattus norvegicus [11]", "result": 19.2, "unit": "%"}, {"measurement": "inhibition in vivo at 50 mg/kg", "setting": "Rattus norvegicus [12]", "result": 68.2, "unit": "%"}, {"measurement": "inhibition in vivo at 50 mg/kg", "setting": "Rattus norvegicus [13]", "result": 48.2, "unit": "%"}]}
